One assay deals with T1, NuaK2 (Homo sapiens, UniProt Q9H093).
T1 construct: capturing and identification of kinases from L-363 cell lysate; endogenous in cells; host or cells: L-363 (DSMZ ACC49), treated with MG132 before harvest
Briefly: Kinobeads competition binding, L-363 cell lysate. The following applies: 10 μM free compound, L-363 lysate. The method, then:
(§1) To one aliquot of cell lysate 10 μM of the free compound (FIG. 3, CZC31326) was added and allowed to bind to proteins in the lysate. Then the affinity matrix with the immobilized compound was added to capture proteins that were not interacting with the previously added free compound. Beads were separated from the lysate and bead bound proteins were eluted in SDS sample buffer and subsequently separated by SDS-Polyacrylamide gel electrophoresis (FIG. 8). Suitable gel bands were cut out and subjected to in-gel proteolytic digestion with trypsin. The second lysate aliquot was processed identically, however no free compound was added (DMSO solvent control). Peptides originating from samples 1 and 2 were labeled with iTRAQ reagents (iTRAQ 114 and iTRAQ 117) and the combined samples were analyzed with a nano-flow liquid chromatography system coupled online to a tandem mass spectrometer (LC-MS/MS) experiment followed by iTRAQ reporter ion quantification in the MS/MS spectra as described in Example 2.
(§2) For this experiment the human plasma cell leukaemia line L-363 was used (German Collection of Microorganisms and Cell Cultures, DSMZ number ACC49, Braunschweig, Germany). Cells were treated for three hours with 20 μM of the proteasome inhibitor MG132 (Z-Leu-Leu-Leu-al, Sigma C2211) prior to cell harvesting.

A further assay addresses T2, RSK4 (Homo sapiens, UniProt Q9UK32).
T2 construct: endogenous in cells; host or cells: L-363 (DSMZ ACC49), treated with MG132 before harvest
Briefly: Kinobeads competition binding, L-363 cell lysate. As to conditions: 10 μM free compound, L-363 lysate. The method, then:
as §1, §2

The target of the next assay is SLK (Homo sapiens, UniProt Q9H2G2). The assay can be described thus: Kinobeads competition binding, L-363 cell lysate. The following applies: 10 μM free compound, L-363 lysate. As to the method:
as §1, §2

Another assay concerns the target T3, ADCK1 (Homo sapiens, UniProt Q86TW2).
T3 construct: capturing and identification of kinases from L-363 cell lysate; endogenous in cells; host or cells: L-363 (treated with MG132 before harvest)
Briefly: Kinobeads competition binding, L-363 cell lysate. As to conditions: 10 μM free compound, L-363 lysate. As to the method: as §1, §2

The next assay has as its target T4, DYRKIA (Homo sapiens, UniProt Q13627).
T4 construct: endogenous in cells; host or cells: HL60 (DSMZ ACC3)
Briefly: Kinobeads competition binding, HL60 cell lysate. The following applies: 10 μM free compound. The method, then: (§3) To one aliquot of cell lysate 10 μM of the free compound (FIG. 3, CZC31326) was added and allowed to bind to proteins in the lysate. Then the affinity matrix with the immobilized compound (Example 1) was added to capture proteins that were not interacting with the previously added free compound. Beads were separated from the lysate and bead bound proteins were eluted in SDS sample buffer and subsequently separated by SDS-Polyacrylamide gel electrophoresis (FIG. 4). Suitable gel bands were cut out and subjected to in-gel proteolytic digestion with trypsin. The second lysate aliquot was processed identically, however no free compound was added (DMSO solvent control). Peptides originating from samples 1 and 2 were labeled with iTRAQ reagents (iTRAQ 114 and iTRAQ 117) and the combined samples were analyzed with a nano-flow liquid chromatography system coupled online to a tandem mass spectrometer (LC-MS/MS) experiment followed by iTRAQ reporter ion quantification in the MS/MS spectra (Ross et al., 2004. Mol. Cell. Proteomics 3(12):1154-1169). Further experimental protocols can be found in WO2006/134056 and a previous publication (Bantscheff et al., 2007. Nature Biotechnology 25, 1035-1044). Sepharose-beads with the immobilized compound (100 μl beads per pull-down experiment) were equilibrated in lysis buffer and incubated with a cell lysate sample containing 50 mg of protein on an end-over-end shaker (Roto Shake Genie, Scientific Industries Inc.) for 2 hours at 4° C. Beads were collected, transferred to Mobicol-columns (MoBiTech 10055) and washed with 10 ml lysis buffer containing 0.4% NP40 detergent, followed by 5 ml lysis buffer containing 0.2% detergent. To elute bound proteins, 60 μl 2×SDS sample buffer was added to the column. The column was incubated for 30 minutes at 50° C. and the eluate was transferred to a siliconized microfuge tube by centrifugation. Proteins were then alkylated with 108 mM iodoacetamid. Proteins were then separated by SDS-Polyacrylamide electrophoresis (SDS-PAGE). The peptide extracts of samples treated with 10 μM of free compound (CZC31326) and the solvent control (0.5% DMSO) were treated with different variants of the isobaric tagging reagent (iTRAQ Reagents Multiplex Kit, part number 4352135, Applied Biosystems, Foster City, Calif., USA). The iTRAQ reagents are a set of multiplexed, amine-specific, stable isotope reagents that can label peptides on amino groups in up to four different biological samples enabling simultaneous identification and quantitation of peptides. The iTRAQ reagents were used according to instructions provided by the manufacturer. The samples were resuspended in 10 μl 50 mM TEAB solution, pH 8.5 and 10 μl ethanol were added. The iTRAQ reagent was dissolved in 120 μl ethanol and 10 μl of reagent solution were added to the sample. The labeling reaction was performed at room temperature for one hour on a horizontal shaker and stopped by adding 5 μl of 100 mM TEAB and 100 mM glycine in water. The two labeled sampled were then combined, dried in a vacuum centrifuge and resuspended in 10 μl of 0.1% formic acid in water. Relative protein quantitation was performed using peak areas of iTRAQ reporter ion signals essentially as described in an earlier publication (Bantscheff et al., 2007. Nature Biotechnology 25, 1035-1044).

The next assay addresses T5, CLK1 (Homo sapiens, UniProt P49759).
T5 construct: endogenous in cells; host or cells: HL60 cells
Briefly: Kinobeads competition binding, HL60 cell lysate. The following applies: 10 μM free compound. As to the method:
as §3

For another assay, the target named is T6, RET (Homo sapiens, UniProt P07949).
T6 construct: endogenous in cells; host or cells: HL60 cells
The assay can be described thus: Kinobeads competition binding, HL60 cell lysate. As to conditions: 10 μM free compound. The method, then:
as §3

The target in a further assay is T7, ACK (Homo sapiens, UniProt Q07912).
T7 construct: endogenous in cells; host or cells: HL60 cells
The assay can be described thus: Kinobeads competition binding, HL60 cell lysate. As to conditions: 10 μM free compound. The method, then: as §3

In another assay the target is T8, CRK7 (Homo sapiens, UniProt Q9NYV4).
T8 construct: endogenous in cells; host or cells: HL60 (DSMZ ACC3)
The assay can be described thus: Kinobeads competition binding, HL60 cell lysate. As to conditions: 10 μM free compound. The method, then:
as §3

For a further assay, the target named is T9, HIPK1 (Homo sapiens, UniProt Q86Z02).
T9 construct: endogenous in cells; host or cells: HL60
Briefly: Kinobeads competition binding, HL60 cell lysate. The following applies: 10 μM free compound. The method, then: as §3

The inhibition is how much of the control response was suppressed. A lower inhibition goes with little suppression.

T6 sequence (P07949 29-1114): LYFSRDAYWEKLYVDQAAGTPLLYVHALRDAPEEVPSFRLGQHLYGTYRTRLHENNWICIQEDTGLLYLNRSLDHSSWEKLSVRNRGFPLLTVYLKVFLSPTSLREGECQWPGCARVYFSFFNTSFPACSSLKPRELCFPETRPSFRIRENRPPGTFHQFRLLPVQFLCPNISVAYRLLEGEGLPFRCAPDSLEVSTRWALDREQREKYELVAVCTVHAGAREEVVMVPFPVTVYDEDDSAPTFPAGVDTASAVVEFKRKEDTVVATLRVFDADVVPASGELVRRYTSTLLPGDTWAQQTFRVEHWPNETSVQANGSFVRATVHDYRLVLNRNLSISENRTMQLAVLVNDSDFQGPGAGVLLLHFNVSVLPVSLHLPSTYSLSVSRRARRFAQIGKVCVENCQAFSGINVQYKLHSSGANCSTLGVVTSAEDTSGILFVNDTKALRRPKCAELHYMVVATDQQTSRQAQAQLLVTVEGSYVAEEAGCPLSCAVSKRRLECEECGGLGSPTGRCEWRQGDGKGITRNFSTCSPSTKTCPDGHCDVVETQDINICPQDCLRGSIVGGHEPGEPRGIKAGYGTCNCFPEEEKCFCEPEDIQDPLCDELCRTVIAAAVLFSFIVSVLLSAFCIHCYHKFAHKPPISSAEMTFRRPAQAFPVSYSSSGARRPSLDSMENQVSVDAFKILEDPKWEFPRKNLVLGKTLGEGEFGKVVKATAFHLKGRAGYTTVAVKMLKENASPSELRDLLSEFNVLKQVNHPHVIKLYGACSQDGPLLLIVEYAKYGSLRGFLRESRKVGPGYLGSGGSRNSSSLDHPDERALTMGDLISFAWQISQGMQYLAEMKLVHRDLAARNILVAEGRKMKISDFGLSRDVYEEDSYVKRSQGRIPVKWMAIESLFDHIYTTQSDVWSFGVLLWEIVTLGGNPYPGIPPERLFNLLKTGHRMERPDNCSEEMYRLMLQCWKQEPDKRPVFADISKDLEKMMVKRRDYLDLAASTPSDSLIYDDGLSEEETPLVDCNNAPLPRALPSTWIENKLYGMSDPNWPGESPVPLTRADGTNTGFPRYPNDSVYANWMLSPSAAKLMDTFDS
T1 sequence (Q9H093 whole entry): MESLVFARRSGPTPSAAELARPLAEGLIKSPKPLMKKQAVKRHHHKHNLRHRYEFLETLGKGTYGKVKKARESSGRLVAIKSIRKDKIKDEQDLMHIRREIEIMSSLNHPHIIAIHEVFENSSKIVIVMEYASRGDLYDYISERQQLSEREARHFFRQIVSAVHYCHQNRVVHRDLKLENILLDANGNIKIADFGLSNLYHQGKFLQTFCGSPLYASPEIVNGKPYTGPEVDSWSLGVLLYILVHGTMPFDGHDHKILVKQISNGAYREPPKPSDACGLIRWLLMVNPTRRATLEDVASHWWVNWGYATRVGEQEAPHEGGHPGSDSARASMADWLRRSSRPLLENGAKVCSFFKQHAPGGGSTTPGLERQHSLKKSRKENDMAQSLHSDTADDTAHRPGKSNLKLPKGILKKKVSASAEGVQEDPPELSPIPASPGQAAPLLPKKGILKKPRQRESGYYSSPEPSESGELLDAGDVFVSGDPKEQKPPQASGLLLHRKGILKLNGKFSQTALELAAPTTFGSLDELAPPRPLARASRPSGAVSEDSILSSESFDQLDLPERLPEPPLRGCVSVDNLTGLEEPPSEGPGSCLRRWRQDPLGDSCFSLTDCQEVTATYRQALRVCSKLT
T7 sequence (Q07912 whole entry): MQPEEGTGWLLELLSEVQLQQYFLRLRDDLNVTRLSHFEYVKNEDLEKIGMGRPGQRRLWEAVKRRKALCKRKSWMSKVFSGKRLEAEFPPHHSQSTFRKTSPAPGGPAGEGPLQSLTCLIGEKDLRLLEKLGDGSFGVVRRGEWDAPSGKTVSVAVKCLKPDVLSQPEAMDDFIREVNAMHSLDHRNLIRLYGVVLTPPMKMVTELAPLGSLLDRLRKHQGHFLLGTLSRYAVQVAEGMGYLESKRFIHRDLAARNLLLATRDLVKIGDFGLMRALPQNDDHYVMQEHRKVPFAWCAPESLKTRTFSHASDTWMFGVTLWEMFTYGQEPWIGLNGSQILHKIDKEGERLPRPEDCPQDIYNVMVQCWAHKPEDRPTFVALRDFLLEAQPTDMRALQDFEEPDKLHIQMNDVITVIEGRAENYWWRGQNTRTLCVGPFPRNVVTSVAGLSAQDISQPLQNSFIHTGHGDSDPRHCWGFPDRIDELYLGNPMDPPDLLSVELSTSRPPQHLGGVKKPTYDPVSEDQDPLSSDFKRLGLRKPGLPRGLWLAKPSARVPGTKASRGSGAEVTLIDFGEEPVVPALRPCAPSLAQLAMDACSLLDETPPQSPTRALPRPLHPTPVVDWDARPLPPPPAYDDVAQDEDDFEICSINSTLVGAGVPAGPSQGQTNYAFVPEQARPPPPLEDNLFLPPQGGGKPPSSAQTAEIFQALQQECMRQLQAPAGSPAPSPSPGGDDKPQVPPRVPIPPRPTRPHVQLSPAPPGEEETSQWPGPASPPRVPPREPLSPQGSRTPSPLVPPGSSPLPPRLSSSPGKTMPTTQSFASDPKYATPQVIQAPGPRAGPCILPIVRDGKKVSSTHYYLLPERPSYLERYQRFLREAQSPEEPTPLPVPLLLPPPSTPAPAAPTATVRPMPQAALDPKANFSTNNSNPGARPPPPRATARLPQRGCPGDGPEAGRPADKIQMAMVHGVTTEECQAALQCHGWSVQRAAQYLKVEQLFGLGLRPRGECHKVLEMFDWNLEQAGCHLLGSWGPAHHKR
T3 sequence (Q86TW2 whole entry): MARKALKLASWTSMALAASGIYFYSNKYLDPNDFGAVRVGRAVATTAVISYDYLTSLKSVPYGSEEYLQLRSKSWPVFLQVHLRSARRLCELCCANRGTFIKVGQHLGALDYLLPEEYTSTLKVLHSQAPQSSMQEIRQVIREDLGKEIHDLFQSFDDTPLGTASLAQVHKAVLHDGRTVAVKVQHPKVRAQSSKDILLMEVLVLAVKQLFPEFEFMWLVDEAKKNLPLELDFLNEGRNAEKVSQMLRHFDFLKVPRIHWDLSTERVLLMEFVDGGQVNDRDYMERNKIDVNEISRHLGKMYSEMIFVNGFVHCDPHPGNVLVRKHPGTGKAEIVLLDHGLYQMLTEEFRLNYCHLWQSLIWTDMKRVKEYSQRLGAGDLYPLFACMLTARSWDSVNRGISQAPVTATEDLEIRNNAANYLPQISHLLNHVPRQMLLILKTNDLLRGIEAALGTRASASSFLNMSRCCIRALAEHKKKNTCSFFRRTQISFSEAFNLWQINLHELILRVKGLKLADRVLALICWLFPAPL
T2 sequence (Q9UK32 whole entry): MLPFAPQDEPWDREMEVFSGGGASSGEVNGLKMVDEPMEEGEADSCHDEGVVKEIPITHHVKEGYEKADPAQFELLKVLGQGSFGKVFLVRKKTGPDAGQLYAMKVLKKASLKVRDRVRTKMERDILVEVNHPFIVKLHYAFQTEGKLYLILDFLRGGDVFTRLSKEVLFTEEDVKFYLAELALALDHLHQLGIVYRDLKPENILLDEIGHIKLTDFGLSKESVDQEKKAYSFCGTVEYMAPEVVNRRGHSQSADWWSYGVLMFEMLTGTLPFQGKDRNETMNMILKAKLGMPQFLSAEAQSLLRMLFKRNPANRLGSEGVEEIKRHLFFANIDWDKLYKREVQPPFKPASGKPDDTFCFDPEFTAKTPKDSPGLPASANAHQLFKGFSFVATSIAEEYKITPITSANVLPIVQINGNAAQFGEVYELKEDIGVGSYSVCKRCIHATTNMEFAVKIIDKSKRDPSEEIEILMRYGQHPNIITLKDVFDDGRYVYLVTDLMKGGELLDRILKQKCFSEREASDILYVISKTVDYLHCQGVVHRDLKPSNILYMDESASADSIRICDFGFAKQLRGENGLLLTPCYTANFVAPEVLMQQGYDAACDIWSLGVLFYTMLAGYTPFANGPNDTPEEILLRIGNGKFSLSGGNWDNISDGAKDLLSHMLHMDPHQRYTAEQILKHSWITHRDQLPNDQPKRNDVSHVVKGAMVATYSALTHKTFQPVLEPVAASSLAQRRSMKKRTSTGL
T5 sequence (P49759 whole entry): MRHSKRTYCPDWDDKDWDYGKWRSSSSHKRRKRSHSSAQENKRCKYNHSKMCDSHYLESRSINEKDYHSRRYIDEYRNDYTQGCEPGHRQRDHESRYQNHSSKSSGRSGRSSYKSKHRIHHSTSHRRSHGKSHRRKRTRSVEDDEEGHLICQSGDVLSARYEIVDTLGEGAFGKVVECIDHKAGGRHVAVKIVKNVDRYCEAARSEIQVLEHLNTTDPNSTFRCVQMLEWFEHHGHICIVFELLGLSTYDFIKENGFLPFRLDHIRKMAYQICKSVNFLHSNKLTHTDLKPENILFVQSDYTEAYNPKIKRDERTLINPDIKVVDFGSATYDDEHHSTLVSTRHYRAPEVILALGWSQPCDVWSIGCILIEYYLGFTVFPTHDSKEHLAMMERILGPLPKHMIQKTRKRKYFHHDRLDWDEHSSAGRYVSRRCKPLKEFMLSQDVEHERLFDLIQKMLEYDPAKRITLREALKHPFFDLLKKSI

As to `CS(=O)(=O)Nc1ccccc1Nc1nc(Nc2cccc(OCCN)c2)ncc1Cl` [CZC31326, N-(2-(2-(3-(2-aminoethoxy)phenylamino)-5-chloropyrimidin-4-ylamino)phenyl)methanesulfonamide], the figures for the Competition % on NuaK2, on RSK4 and on CRK7 were 96.7%, 96.7% and 92.1%, respectively. Also, the inhibition at 10 µM on SLK turned out to be 95%; at ADCK1 it was 93.8%; at DYRKIA it was 96.1%; on CLK1 it was 97.4%; at RET, 97.1%; on ACK, 93.6%. On HIPK1, this compound registered an inhibition at 10 µM of 97.1%.
